This is an account of results in article PMC12352620, “Fragment-based discovery of dual ligand pharmacophores for lipid-sensing transcription factors for designed polypharmacology” (RSC Medicinal Chemistry, 2025).

Type in all cases: cell-based
The subject of assay [1] is CAR. The assay is described as follows: Gal4-hybrid reporter gene assay CAR (selectivity). The following applies: mean, n ≥ 3, Fig. 8. As for the experimental part:
(§1) NR modulation was determined as described previously[45] in Gal4 hybrid reporter gene assays in HEK293T cells (German Collection of Microorganisms and Cell Culture GmbH, DSMZ) using pFR-Luc (Stratagene, La Jolla, CA, USA; reporter), pRL-SV40 (Promega, Madison, WI, USA; internal control) and the hybrid receptor clones pFA-CMV-hTHRα-LBD,[46] pFA-CMV-hPPARγ-LBD,[47] pFA-CMV-hFXR-LBD,[48] and pFA-CMV-hRXRα-LBD,[49] coding for the hinge region and ligand binding domain of the canonical isoform of the respective NR. Cells were cultured in Dulbecco's modified Eagle's medium (DMEM), high glucose supplemented with 10% fetal calf serum (FCS), sodium pyruvate (1 mM), penicillin (100 U mL^−1), and streptomycin (100 μg mL^−1) at 37 °C and 5% CO2 and seeded in 96-well plates (3 × 10^4 cells per well). After 24 h, medium was changed to Opti-MEM without supplements and cells were transiently transfected using Lipofectamine LTX reagent (Invitrogen, Carlsbad, CA, USA) according to the manufacturer's protocol. Five hours after transfection, cells were incubated with the test compounds in Opti-MEM supplemented with penicillin (100 U mL^−1), streptomycin (100 μg mL^−1) and 0.1% DMSO for 16 h before luciferase activity was measured using the Dual-Glo Luciferase Assay System (Promega) according to the manufacturer's protocol on a Tecan Spark luminometer (Tecan Deutschland GmbH, Crailsheim, Germany). Firefly luminescence was divided by Renilla luminescence and multiplied by 1000 resulting in relative light units (RLU) to normalize for transfection efficiency and cell growth. Fold activation was obtained by dividing the mean RLU of test compound by the mean RLU of the untreated control. All samples were tested in at least three biologically independent experiments in duplicates. For dose–response curve fitting and calculation of EC50 values, the equation “[agonist] vs. response − variable slope (four parameters)” was used in GraphPad Prism (version 7.00, GraphPad Software, La Jolla, CA, USA). For selectivity profiling, the hybrid reporter gene assay was performed with Gal4 fusion receptor plasmids for RARα, PPARα, PPARδ, VDR, CAR and LXRα. The following reference agonists were used: triiodothyronine (1 μM, THR), all-trans retinoic acid (1 μM, RAR), GW7647 (1 μM, PPARα), pioglitazone (1 μM, PPARγ), L165041 (1 μM, PPARδ), calcitriol (1 μM, VDR), CITCO (1 μM, CAR), T0901317 (1 μM, LXR), GW4064 (1 μM, FXR), bexarotene (1 μM, RXR).

Assay [2] addresses T1, PPARα (Homo sapiens, UniProt Q07869).
T1 construct: expressed in transfected cells; host or cells: HEK293T
T1 sequence (Q07869 167-468 limits assumed): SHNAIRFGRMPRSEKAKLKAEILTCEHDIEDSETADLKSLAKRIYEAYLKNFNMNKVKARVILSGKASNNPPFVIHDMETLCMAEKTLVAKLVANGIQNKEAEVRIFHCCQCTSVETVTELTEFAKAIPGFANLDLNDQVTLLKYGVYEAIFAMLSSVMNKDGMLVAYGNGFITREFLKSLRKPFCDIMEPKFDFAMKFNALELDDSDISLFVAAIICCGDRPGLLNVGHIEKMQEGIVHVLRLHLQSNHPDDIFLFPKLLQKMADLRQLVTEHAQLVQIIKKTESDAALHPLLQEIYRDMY
In words: Gal4-hybrid reporter gene assay PPARα (selectivity). The following applies: mean, n ≥ 3, Fig. 8. As for the experimental part: as §1
On the technique in general: Reporter assays use an easily measured gene product as a stand-in for the process of interest.

Assay [3] has as its target T2, RARα (Homo sapiens, UniProt P10276).
T2 construct: expressed in transfected cells; host or cells: HEK293T
T2 sequence (P10276 154-462 limits assumed): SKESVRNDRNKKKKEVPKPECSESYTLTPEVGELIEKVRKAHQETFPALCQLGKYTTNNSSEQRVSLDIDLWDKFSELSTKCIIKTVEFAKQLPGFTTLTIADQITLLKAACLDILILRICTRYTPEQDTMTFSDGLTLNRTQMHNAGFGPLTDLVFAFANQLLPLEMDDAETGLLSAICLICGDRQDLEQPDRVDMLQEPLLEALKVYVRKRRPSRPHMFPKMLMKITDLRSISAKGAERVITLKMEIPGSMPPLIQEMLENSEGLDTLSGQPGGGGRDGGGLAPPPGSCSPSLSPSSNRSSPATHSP
The assay is described as follows: Gal4-hybrid reporter gene assay RARα (selectivity). The settings on record: mean, n ≥ 3, Fig. 8. As for the experimental part:
as §1

Assay [4] has as its target T3, LXRα (Homo sapiens, UniProt Q13133).
T3 construct: expressed in transfected cells; host or cells: HEK293T
T3 sequence (Q13133 171-447 limits assumed): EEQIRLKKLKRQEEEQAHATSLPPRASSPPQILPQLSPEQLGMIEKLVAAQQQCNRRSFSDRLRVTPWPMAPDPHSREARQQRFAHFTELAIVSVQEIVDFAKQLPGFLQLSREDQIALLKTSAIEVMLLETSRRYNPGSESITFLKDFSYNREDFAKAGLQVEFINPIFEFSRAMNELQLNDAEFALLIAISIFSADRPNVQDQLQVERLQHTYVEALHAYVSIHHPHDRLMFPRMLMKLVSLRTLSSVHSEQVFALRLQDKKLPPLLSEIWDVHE
The assay is described as follows: Gal4-hybrid reporter gene assay LXRα (selectivity). The following applies: mean, n ≥ 3, Fig. 8. The procedure:
as §1

For assay [5], the target named is T4, RXRα (Homo sapiens, UniProt P19793).
T4 construct: expressed in transfected cells; host or cells: HEK293T
T4 sequence (P19793 227-458 limits assumed): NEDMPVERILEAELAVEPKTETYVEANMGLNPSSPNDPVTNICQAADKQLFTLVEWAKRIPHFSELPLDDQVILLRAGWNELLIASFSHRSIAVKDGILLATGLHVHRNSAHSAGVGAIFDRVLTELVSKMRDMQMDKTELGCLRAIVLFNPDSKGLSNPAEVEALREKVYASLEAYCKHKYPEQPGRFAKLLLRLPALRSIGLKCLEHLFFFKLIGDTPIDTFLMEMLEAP
The assay is described as follows: Gal4-hybrid reporter gene assay RXRα. The settings on record: n ≥ 3; for fold act. RXRα: mean, Fig. 8; for EC50 RXRα / EC50: HEK293T, Gal4-hybrid reporter, Inactive = tested 1–300 μM; for EC50 RXRα / EC50 / max. fold activation RXRα: mean ± S.E.M.; for max. fold activation RXRα: maximum reporter activation vs DMSO (0.1%) treated cells. The procedure: as §1

Assay [6] deals with T5, PPARγ (Homo sapiens, UniProt P37231).
T5 construct: expressed in transfected cells; host or cells: HEK293T
T5 sequence (P37231 238-503 limits assumed): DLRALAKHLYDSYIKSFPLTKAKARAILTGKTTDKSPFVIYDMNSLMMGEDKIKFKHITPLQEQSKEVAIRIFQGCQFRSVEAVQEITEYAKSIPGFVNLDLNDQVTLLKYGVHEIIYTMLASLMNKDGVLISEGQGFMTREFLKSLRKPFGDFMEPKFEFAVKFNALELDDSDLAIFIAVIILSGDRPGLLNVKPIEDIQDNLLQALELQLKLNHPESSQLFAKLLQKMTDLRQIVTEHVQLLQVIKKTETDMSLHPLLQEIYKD
In words: Gal4-hybrid reporter gene assay PPARγ. The settings on record: n ≥ 3; for fold act. PPARγ: mean, Fig. 8; for EC50: HEK293T, Gal4-hybrid reporter, Inactive = tested 1–300 μM; for EC50 / max. fold activation PPARγ: mean ± S.E.M.; for max. fold activation PPARγ: maximum reporter activation vs DMSO (0.1%) treated cells. As for the experimental part:
as §1

Consider `O=C(O)/C=C/C(=O)c1ccc(-c2ccccc2)cc1` [4.7, (E)-4-([1,1′-Biphenyl]-4-yl)-4-oxobut-2-enoic acid], for which the “fold act. CAR” value in assay [1] (30 μM) is recorded as 2 fold. Moreover, the “fold act. PPARα” value in assay [2] (30 μM) was found to be 6 fold. The “fold act. RARα” value in assay [3] (30 μM) is 3 fold. Besides, the “fold act. LXR” value in assay [4] (30 μM) amounted to 1 fold. For the same compound, the “fold act. RXRα” value in assay [5] (30 μM) came to 1 fold. In assay [5], the “EC50 RXRα” value is on record as “Inactive”. Besides, the “fold act. PPARγ” value in assay [6] (30 μM) was found to be 32 fold. In assay [6], the 50% effective concentration (EC50) (commonly the midpoint of the concentration-response curve) worked out at 18 ± 4 µM and the “max. fold activation PPARγ” value is recorded as “(33.4 ± 2.7-fold)”.
As for `CCOc1ccc(-c2cc(C(=O)O)co2)cc1` [3.1, 5-(4-Ethoxyphenyl)furan-3-carboxylic acid], the “fold act. CAR” value in assay [1] (10 μM) is on record as 3 fold. Besides, the “fold act. PPARα” value in assay [2] (10 μM) came out at 5 fold. For the same compound, the “fold act. RARα” value in assay [3] (10 μM) worked out at 6 fold. Further, the “fold act. LXR” value in assay [4] (10 μM) was determined as 3 fold. Further, the “fold act. RXRα” value in assay [5] (10 μM) is reported as 4 fold. In assay [5], the midpoint of the response, the EC50, lay at 0.9 ± 0.2 µM and the “max. fold activation RXRα” value is listed as “(4.3 ± 0.5-fold)”. In assay [6] (10 μM), the “fold act. PPARγ” value is on record as 6 fold. In assay [6], the midpoint of the response, the EC50, lay at 3 ± 1 µM and the “max. fold activation PPARγ” value was “(6.4 ± 0.6-fold)”.
Take `O=C(O)/C=C/C(=O)c1ccc(Cl)cc1Cl` [4.6, (E)-4-Oxo-4-(2,4-dichlorophenyl)but-2-enoic acid]: in assay [1] (30 μM), the “fold act. CAR” value was found to be 1 fold. In assay [2] (30 μM), the “fold act. PPARα” value is 1 fold. Besides, the “fold act. RARα” value in assay [3] (30 μM) turned out to be 1 fold. Besides, the “fold act. LXR” value in assay [4] (30 μM) turned out to be 1 fold. Moreover, in assay [5] (30 μM), the “fold act. RXRα” value is given as 1 fold. Also, in assay [5], the “EC50 RXRα” value was “Inactive”. Besides, in assay [6] (30 μM), the “fold act. PPARγ” value was 9 fold. For the same compound, in assay [6], it took 20 ± 5 µM to reach a half-maximal effect (EC50) and the “max. fold activation PPARγ” value was “(13 ± 2-fold)”.
`O=C(O)/C=C/C(=O)c1ccc2ccccc2c1` [4.8, (E)-4-Oxo-4-(naphthalen-2-yl)but-2-enoic acid]: in assay [1] (40 μM), the “fold act. CAR” value came to 3 fold. Moreover, in assay [2] (40 μM), the “fold act. PPARα” value turned out to be 7 fold. For the same compound, the “fold act. RARα” value in assay [3] (40 μM) was 3 fold. For the same compound, the “fold act. LXR” value in assay [4] (40 μM) worked out at 3 fold. In assay [5] (40 μM), the “fold act. RXRα” value is 5 fold. Also, in assay [5], the response was half-maximal at 26 ± 3 µM (EC50) and the “max. fold activation RXRα” value is given as “(4.5 ± 0.5-fold)”. Further, the “fold act. PPARγ” value in assay [6] (40 μM) was 18 fold. Moreover, in assay [6], the response was half-maximal at 27 ± 1 µM (EC50) and the “max. fold activation PPARγ” value is recorded as “(16.7 ± 0.5-fold)”.
